Literature values in patent US20190112580A1, “METHODS FOR TREATING CO[…] AND RELATED CULTURED CELLS” (priority 2017, published 2019).

System: C2C12 myoblasts
Details: cited from earlier work
[1] = 5 μM for 3 days (Montesano et al.)

## Nc1ncn([C@@H]2O[C@H](CO)[C@@H](O)[C@H]2O)c(=O)n1 [5-AZA, 5-azacytidine]
[1]
  DNA methylation and differentiation: induced DNA hypomethylation and improved differentiation of C2C12 myoblasts
  cytotoxicity: without overt signs of cytotoxicity
mouse-derived C2C12 muscle cell lines
  muscle-specific gene expression, myogenesis and myotube formation: promoted expression of muscle-specific genes, enhanced myogenesis and myotube formation
